Measured values reported in patent publication US20240197666A1, “DITERPENOID COMPOUNDS THAT ACT ON PROTEIN KINASE C (PKC)” (K-Gen Therapeutics, Inc., priority 2021, published 2024).

How the values were obtained:
C1b domain of human PKCε = target: T1, C1b domain of human PKCε (Homo sapiens, UniProt Q02156); test: biochemical; format: binding; settings: 3H-PDBu competition
T1 construct: Genes encoding C1b domains of human PKCα, δ, ε, θ, and PKD1 (PKCμ) were synthesized; made in house; host or cells: E. coli BL21(DE3)
T1 sequence (Q02156 242-292 limits assumed): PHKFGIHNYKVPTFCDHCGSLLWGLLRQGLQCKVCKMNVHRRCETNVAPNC
Method in brief: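 Binding is reported as Ki, derived from IC50 using Cheng-Prusoff with the experimentally determined 3H-PDBu Kd of each protein preparation. Tracer displacement from recombinant human GST-C1b (E. coli BL21(DE3)) was read by filter scintillation after 10 min at 37° C plus 20 min on ice.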

[1] = tested on: phosphorylation of PKCμ, PKCδ and Erk1/2 in A549 lung cancer cells; test: Western blot of activation of PKC and downstream target protein in A549 cells; format: cell-based; settings: 0.3 μM, 30 minutes
Experimental: According to the methods described in patent (WO/2017/083783) A549 lung cancer cells (˜3 million cells) were seeded in 10 cm tissue culture dishes (or ˜1 million cells in 6 cm dish) and grown overnight. Cells were then treated with different drugs at indicated concentrations for 30 minutes. Cell lysate preparation, protein quantitation, SDS-PAGE, and Western blotting procedures are described (WO/2017/083783). β-actin or Vinculin was used as loading controls. Imagequant LAS4000 (GE) was used to scan membranes if secondary antibodies anti-mouse IgG HRP conjugate or anti-rabbit IgG HRP conjugate (dilutions from 1:2000-1:10000) were used. For ProteinSimple Wes system, manufacture's procedure was followed (ProteinSimple 12-230 kDa Wes Separation Module) for sample preparation, loading, running, and data analysis.
Phosphorylation of these sites has been linked to acute activation or catalytic activity of the PKC isoforms and Erk1/2. High level of phosphorylation indicates strong activation.
A subset of the diterpenoid compounds with good binding affinity to novel PKC isoforms and PKCμ was tested at two different concentrations in A549 cells to assess activation of PKCμ, PKCδ, and Erk1/2 by Western blot analysis. In addition to the phospho-specific antibodies described above, an additional phospho-specific antibody P-PKCδ (S299) (Abcam cat #133456) was also used. This antibody has been shown in the literature (Durgan et al., FEBS Lett. 2007, 581(18):3377-81, Novel phosphorylation site markers of protein kinase C delta activation) to be able to detect activation of PKCδ. K-101 (prostratin, 1 μM) was included as reference compounds.

human PBMC cells = test: Cytokine/chemokine gene expression in human PBMC (TaqMan); format: cell-based; settings: 4 h;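 on Gene Relative Expression CCL2: 2^-ΔΔCt fold change vs DMSO control normalized to 18S and GAPDH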;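 on Gene Relative Expression GM-CSF: 2^-ΔΔCt fold change vs DMSO control normalized to 18S and GAPDH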;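 on Gene Relative Expression IFN-α: 2^-ΔΔCt fold change vs DMSO control normalized to 18S and GAPDH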;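 on Gene Relative Expression IFNγ: 2^-ΔΔCt fold change vs DMSO control normalized to 18S and GAPDH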
Experimental: Each treatment condition was performed in duplicates.

CC1=C[C@H]2[C@@]3(O)[C@H](C)C[C@]4(OC(=O)[C@@H](N)C5Cc6ccccc6C5)[C@H]([C@@H]3C=C(CO)C[C@]2(O)C1=O)C4(C)C
Ki (C1b domain of human PKCε): 10 to 30 nM
phosphorylation of PKCμ, PKCδ and Erk1/2 [1]: induced high levels of phosphorylation

CC1=C[C@H]2[C@@]3(O)[C@H](C)C[C@]4(OC(=O)[C@H](N)CCCCCCc5ccccc5)[C@H]([C@@H]3C=C(CO)C[C@]2(O)C1=O)C4(C)C
Ki (C1b domain of human PKCε): 10 to 30 nM
Gene Relative Expression CCL2 (human PBMC cells; 0.03 μM): 4.55
Gene Relative Expression GM-CSF (human PBMC cells; 0.03 μM): 1.89
Gene Relative Expression IFN-α (human PBMC cells; 0.03 μM): 1.66
Gene Relative Expression IFNγ (human PBMC cells; 0.03 μM): 1.62
Gene Relative Expression IL-1β (human PBMC cells; 0.03 μM): 0.54
Gene Relative Expression IL-2 (human PBMC cells; 0.03 μM): 1.71
Gene Relative Expression IL-6 (human PBMC cells; 0.03 μM): 0.74
Gene Relative Expression IL-8 (human PBMC cells; 0.03 μM): 0.80
Gene Relative Expression IL-10 (human PBMC cells; 0.03 μM): 1.27
Gene Relative Expression IL-12p40 (human PBMC cells; 0.03 μM): 0.74
Gene Relative Expression IL-12p70 (human PBMC cells; 0.03 μM): 1.02
Gene Relative Expression IL-13 (human PBMC cells; 0.03 μM): 0.40
Gene Relative Expression IL-18 (human PBMC cells; 0.03 μM): 0.47
Gene Relative Expression ISG15 (human PBMC cells; 0.03 μM): 0.97
Gene Relative Expression MIP1a (CCL3) (human PBMC cells; 0.03 μM): 1.86
Gene Relative Expression MX1 (human PBMC cells; 0.03 μM): 0.65
Gene Relative Expression OAS1 (human PBMC cells; 0.03 μM): 0.64
Gene Relative Expression TNF-α (human PBMC cells; 0.03 μM): 1.38
Gene Relative Expression CCL2 (human PBMC cells; 0.10 μM): 3.12
Gene Relative Expression GM-CSF (human PBMC cells; 0.10 μM): 7.74
Gene Relative Expression IFN-α (human PBMC cells; 0.10 μM): 0.73
Gene Relative Expression IFNγ (human PBMC cells; 0.10 μM): 3.47
Gene Relative Expression IL-1β (human PBMC cells; 0.10 μM): 1.58
Gene Relative Expression IL-2 (human PBMC cells; 0.10 μM): 7.65
Gene Relative Expression IL-4 (human PBMC cells; 0.10 μM): 1.61
Gene Relative Expression IL-6 (human PBMC cells; 0.10 μM): 1.14
Gene Relative Expression IL-8 (human PBMC cells; 0.10 μM): 0.53
Gene Relative Expression IL-10 (human PBMC cells; 0.10 μM): 0.48
Gene Relative Expression IL-12p40 (human PBMC cells; 0.10 μM): 0.45
Gene Relative Expression IL-12p70 (human PBMC cells; 0.10 μM): 0.93
Gene Relative Expression IL-13 (human PBMC cells; 0.10 μM): 47.45
Gene Relative Expression IL-18 (human PBMC cells; 0.10 μM): 0.09
Gene Relative Expression ISG15 (human PBMC cells; 0.10 μM): 1.16
Gene Relative Expression MIP1a (CCL3) (human PBMC cells; 0.10 μM): 2.39
Gene Relative Expression MX1 (human PBMC cells; 0.10 μM): 0.72
Gene Relative Expression OAS1 (human PBMC cells; 0.10 μM): 0.55
Gene Relative Expression TNF-α (human PBMC cells; 0.10 μM): 4.04
Gene Relative Expression CCL2 (human PBMC cells; 0.3 μM): 2.09
Gene Relative Expression GM-CSF (human PBMC cells; 0.3 μM): 10.50
Gene Relative Expression IFN-α (human PBMC cells; 0.3 μM): 0.95
Gene Relative Expression IFNγ (human PBMC cells; 0.3 μM): 18.57
Gene Relative Expression IL-1β (human PBMC cells; 0.3 μM): 1.53
Gene Relative Expression IL-2 (human PBMC cells; 0.3 μM): 3.41
Gene Relative Expression IL-4 (human PBMC cells; 0.3 μM): 2.57
Gene Relative Expression IL-6 (human PBMC cells; 0.3 μM): 4.85
Gene Relative Expression IL-8 (human PBMC cells; 0.3 μM): 0.59
Gene Relative Expression IL-10 (human PBMC cells; 0.3 μM): 0.06
Gene Relative Expression IL-12p40 (human PBMC cells; 0.3 μM): 0.69
Gene Relative Expression IL-12p70 (human PBMC cells; 0.3 μM): 0.61
Gene Relative Expression IL-13 (human PBMC cells; 0.3 μM): 78.90
Gene Relative Expression IL-18 (human PBMC cells; 0.3 μM): 0.04
Gene Relative Expression ISG15 (human PBMC cells; 0.3 μM): 1.14
Gene Relative Expression MIP1a (CCL3) (human PBMC cells; 0.3 μM): 3.37
Gene Relative Expression MX1 (human PBMC cells; 0.3 μM): 0.57
Gene Relative Expression OAS1 (human PBMC cells; 0.3 μM): 0.42
Gene Relative Expression TNF-α (human PBMC cells; 0.3 μM): 4.13

CC1=C[C@H]2[C@@]3(O)[C@H](C)C[C@]4(OC(=O)[C@@H](N)CCCCCCc5ccccc5)[C@H]([C@@H]3C=C(CO)C[C@]2(O)C1=O)C4(C)C
Ki (C1b domain of human PKCε): 10 to 30 nM
Gene Relative Expression CCL2 (human PBMC cells; 0.01 μM): 1.81
Gene Relative Expression GM-CSF (human PBMC cells; 0.01 μM): 1.00
Gene Relative Expression IFN-α (human PBMC cells; 0.01 μM): 0.73
Gene Relative Expression IFNγ (human PBMC cells; 0.01 μM): 1.46
Gene Relative Expression IL-1β (human PBMC cells; 0.01 μM): 0.38
Gene Relative Expression IL-2 (human PBMC cells; 0.01 μM): 1.32
Gene Relative Expression IL-6 (human PBMC cells; 0.01 μM): 0.57
Gene Relative Expression IL-8 (human PBMC cells; 0.01 μM): 0.44
Gene Relative Expression IL-10 (human PBMC cells; 0.01 μM): 1.59
Gene Relative Expression IL-12p40 (human PBMC cells; 0.01 μM): 0.34
Gene Relative Expression IL-12p70 (human PBMC cells; 0.01 μM): 1.05
Gene Relative Expression IL-13 (human PBMC cells; 0.01 μM): 0.37
Gene Relative Expression IL-18 (human PBMC cells; 0.01 μM): 0.63
Gene Relative Expression ISG15 (human PBMC cells; 0.01 μM): 0.94
Gene Relative Expression MIP1a (CCL3) (human PBMC cells; 0.01 μM): 1.29
Gene Relative Expression MX1 (human PBMC cells; 0.01 μM): 0.77
Gene Relative Expression OAS1 (human PBMC cells; 0.01 μM): 0.85
Gene Relative Expression TNF-α (human PBMC cells; 0.01 μM): 1.34
Gene Relative Expression CCL2 (human PBMC cells; 0.03 μM): 6.53
Gene Relative Expression GM-CSF (human PBMC cells; 0.03 μM): 1.88
Gene Relative Expression IFN-α (human PBMC cells; 0.03 μM): 1.21
Gene Relative Expression IFNγ (human PBMC cells; 0.03 μM): 1.49
Gene Relative Expression IL-1β (human PBMC cells; 0.03 μM): 0.94
Gene Relative Expression IL-2 (human PBMC cells; 0.03 μM): 3.59
Gene Relative Expression IL-4 (human PBMC cells; 0.03 μM): 1.19
Gene Relative Expression IL-6 (human PBMC cells; 0.03 μM): 1.23
Gene Relative Expression IL-8 (human PBMC cells; 0.03 μM): 0.66
Gene Relative Expression IL-10 (human PBMC cells; 0.03 μM): 0.86
Gene Relative Expression IL-12p40 (human PBMC cells; 0.03 μM): 0.38
Gene Relative Expression IL-12p70 (human PBMC cells; 0.03 μM): 0.96
Gene Relative Expression IL-13 (human PBMC cells; 0.03 μM): 5.87
Gene Relative Expression IL-18 (human PBMC cells; 0.03 μM): 0.19
Gene Relative Expression ISG15 (human PBMC cells; 0.03 μM): 0.97
Gene Relative Expression MIP1a (CCL3) (human PBMC cells; 0.03 μM): 1.67
Gene Relative Expression MX1 (human PBMC cells; 0.03 μM): 0.65
Gene Relative Expression OAS1 (human PBMC cells; 0.03 μM): 0.55
Gene Relative Expression TNF-α (human PBMC cells; 0.03 μM): 2.91
Gene Relative Expression CCL2 (human PBMC cells; 0.10 μM): 0.40
Gene Relative Expression GM-CSF (human PBMC cells; 0.10 μM): 21.01
Gene Relative Expression IFN-α (human PBMC cells; 0.10 μM): 0.80
Gene Relative Expression IFNγ (human PBMC cells; 0.10 μM): 11.33
Gene Relative Expression IL-1β (human PBMC cells; 0.10 μM): 3.00
Gene Relative Expression IL-2 (human PBMC cells; 0.10 μM): 4.98
Gene Relative Expression IL-4 (human PBMC cells; 0.10 μM): 2.78
Gene Relative Expression IL-6 (human PBMC cells; 0.10 μM): 6.15
Gene Relative Expression IL-8 (human PBMC cells; 0.10 μM): 0.44
Gene Relative Expression IL-10 (human PBMC cells; 0.10 μM): 0.12
Gene Relative Expression IL-12p70 (human PBMC cells; 0.10 μM): 0.74
Gene Relative Expression IL-13 (human PBMC cells; 0.10 μM): 121.59
Gene Relative Expression IL-18 (human PBMC cells; 0.10 μM): 0.05
Gene Relative Expression ISG15 (human PBMC cells; 0.10 μM): 1.57
Gene Relative Expression MIP1a (CCL3) (human PBMC cells; 0.10 μM): 4.95
Gene Relative Expression MX1 (human PBMC cells; 0.10 μM): 1.06
Gene Relative Expression OAS1 (human PBMC cells; 0.10 μM): 0.71
Gene Relative Expression TNF-α (human PBMC cells; 0.10 μM): 6.52
